Experimental findings from patent US5384243A, “Method for screening an agent for its ability to prevent cell transformation” (priority 1992, dated 1995) are described below.

Assay [1] deals with human muscarinic acetylcholine receptors. The assay can be described thus: Focus assay after transfection of NIH/3T3 cells, mACHR genes in general. It counts as cell-based. The following applies: atropine 10 μM. The source says:
(§1) Transfection. […] Mass populations expressing the transfected neogene were selected for their ability to grow in the presence of geneticin (G418) (Gibco). Transformed foci were scored in stained plates of NIH/3T3 2-3 weeks after transfection. Individual G418 colonies or transformed foci were isolated with the aid of cloning cylinders, and maintained in Dulbecco's Modified Eagle Medium containing 10% calf serum.
(§2) DNA Constructs. […] Analysis of Receptor Expression.
(§3) Foci of transformation were scored after 2-3 weeks. The efficiency of transfection was determined by scoring neo resistant colonies in medium containing G418 (0.750 mg/ml). […] Results represent the average of three independent experiments.

The target of assay [2] is T1, m4 mACHR (Homo sapiens, UniProt P08173).
T1 sequence (P08173 1-479): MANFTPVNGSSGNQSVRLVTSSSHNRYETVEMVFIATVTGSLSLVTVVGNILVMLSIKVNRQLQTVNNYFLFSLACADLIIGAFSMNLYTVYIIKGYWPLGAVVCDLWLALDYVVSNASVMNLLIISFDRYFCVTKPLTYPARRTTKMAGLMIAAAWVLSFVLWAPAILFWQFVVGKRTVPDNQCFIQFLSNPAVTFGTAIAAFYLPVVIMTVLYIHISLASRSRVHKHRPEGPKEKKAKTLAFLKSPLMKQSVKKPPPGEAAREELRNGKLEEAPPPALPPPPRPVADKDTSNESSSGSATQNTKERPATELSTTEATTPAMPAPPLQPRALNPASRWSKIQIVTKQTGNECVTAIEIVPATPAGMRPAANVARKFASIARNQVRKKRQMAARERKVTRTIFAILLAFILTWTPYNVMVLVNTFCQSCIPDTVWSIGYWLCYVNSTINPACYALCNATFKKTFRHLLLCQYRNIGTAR
The assay can be described thus: cAMP assay, forskolin-stimulated, m4 clones. The format is cell-based. Set-up: expressed in transfected cells; host or cells: NIH/3T3 murine fibroblasts (plasmid pDS m4). As to conditions: 1 mM carbachol, m4 (FIG. 4). In general terms: Cyclic AMP is a second messenger, typically raised through Gs and lowered through Gi signalling.

Assay [3] concerns NIH/3T3 cells. As to conditions: neo, binding 0.
Assay [4] concerns the target T1, m4 mACHR. The assay can be described thus: Focus assay after transfection of NIH/3T3 cells, pDS m4. It counts as cell-based. Set-up: expressed in transfected cells; host or cells: NIH/3T3 murine fibroblasts (plasmid pDS m4). As to conditions: for Focus-forming activity: pDS m4.
Description: as §1, §2, §3

Assay [5] relates to NIH/3T3 cells. Briefly: Focus assay after transfection of NIH/3T3 cells, pDS vector. The format is cell-based, murine.
Description: as §1, §2, §3

Assay [6] deals with T2, m2 mACHR (Homo sapiens, UniProt P08172).
T2 sequence (P08172 1-466): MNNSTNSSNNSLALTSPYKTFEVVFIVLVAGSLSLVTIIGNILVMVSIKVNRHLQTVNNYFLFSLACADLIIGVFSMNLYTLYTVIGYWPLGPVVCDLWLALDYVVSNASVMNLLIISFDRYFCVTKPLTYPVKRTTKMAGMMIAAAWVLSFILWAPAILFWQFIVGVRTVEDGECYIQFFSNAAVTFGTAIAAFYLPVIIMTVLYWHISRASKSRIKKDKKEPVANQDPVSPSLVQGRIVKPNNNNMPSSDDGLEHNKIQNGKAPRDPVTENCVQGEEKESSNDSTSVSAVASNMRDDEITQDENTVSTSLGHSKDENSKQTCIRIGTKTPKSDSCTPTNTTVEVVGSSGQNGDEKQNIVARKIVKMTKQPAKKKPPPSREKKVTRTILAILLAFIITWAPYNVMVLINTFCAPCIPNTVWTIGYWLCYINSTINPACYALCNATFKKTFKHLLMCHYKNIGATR
Briefly: cAMP assay, forskolin-stimulated, m2 clones. The format is cell-based. Also on record: expressed in transfected cells; host or cells: NIH/3T3 murine fibroblasts (plasmid pDS m2). As to conditions: 1 mM carbachol, m2 (FIG. 4).

Assay [7] concerns NIH/3T3 cells. Briefly: PI hydrolysis in neo NIH/3T3 cells. It counts as cell-based, murine. As to conditions: Mus musculus, NIH3T3, 1 h, binding 0, read-out: PI Hydrolysis Maximal activation. The source says:
Phosphatidylinositol Hydrolysis.
EC50, half maximal concentration.

The target in assay [8] is T2, m2 mACHR. Briefly: Focus assay after transfection of NIH/3T3 cells, pDS m2. It counts as cell-based. Also on record: expressed in transfected cells; host or cells: NIH/3T3 murine fibroblasts (plasmid pDS m2). As to conditions: for Focus-forming activity: pDS m2.
Description: as §1, §2, §3

Another assay concerns the target T3, m5 mACHR (Homo sapiens, UniProt P08912).
T3 construct: carbachol-dependent focus formation
T3 sequence (P08912 1-532): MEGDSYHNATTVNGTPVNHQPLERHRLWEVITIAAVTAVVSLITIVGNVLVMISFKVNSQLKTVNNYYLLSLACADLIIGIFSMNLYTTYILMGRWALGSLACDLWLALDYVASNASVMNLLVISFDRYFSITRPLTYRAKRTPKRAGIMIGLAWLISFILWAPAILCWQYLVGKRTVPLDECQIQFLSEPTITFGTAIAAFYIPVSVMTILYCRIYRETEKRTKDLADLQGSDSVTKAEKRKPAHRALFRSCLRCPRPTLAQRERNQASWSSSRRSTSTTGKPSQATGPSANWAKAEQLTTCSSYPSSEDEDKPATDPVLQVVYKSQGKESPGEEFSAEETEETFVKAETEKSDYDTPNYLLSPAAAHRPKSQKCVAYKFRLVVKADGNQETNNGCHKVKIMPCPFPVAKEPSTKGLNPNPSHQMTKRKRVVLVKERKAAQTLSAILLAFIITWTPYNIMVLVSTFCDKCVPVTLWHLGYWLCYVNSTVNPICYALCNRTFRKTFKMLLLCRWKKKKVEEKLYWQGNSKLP
Briefly: Focus assay after transfection of NIH/3T3 cells, pDS m5. As to conditions: for Focus-forming activity: pDS m5. It counts as cell-based.
Description: as §1, §2, §3

The test system of another assay is m1, m2, m3 or m4 mACHRs. The assay can be described thus: cAMP assay without forskolin. The following applies: 1 mM carbachol, 10 min.
Assay [9] deals with T2, m2 mACHR.
For assay [10], the system named is NIH/3T3 cells. The assay can be described thus: [3H]NMS binding to membranes of vector (pDS, neo) transfectants.

Some results are limits rather than exact numbers.

Turning to `CN1[C@@H]2CC[C@H]1C[C@@H](OC(=O)C(CO)c1ccccc1)C2` (stereo partly shown) [atropine], the “foci of transformation in cells maintained in atropine” value in [1] is “No foci of transformation were observed”. Further, the “carbachol induced focus-formation in presence of atropine” value in assay [1] (data not shown) is listed as “abolished”.

Turning to `C[N+](C)(C)CCOC(N)=O` [carbachol], the “cAMP levels in forskolin treated cells” value on m4 mACHR [2] and on m2 mACHR [6] was “decreased” each time. Besides, the “Transformation Maximal transportation” value in the assay on NIH/3T3 cells [3] was 0. In addition, the Focus-forming activity on m4 mACHR [4] (carbachol 10^-4 M), at m4 mACHR [4] (carbachol 10^-6 M), in the assay on NIH/3T3 cells [5] (carbachol 10^-4 M), with NIH/3T3 cells [5] (carbachol 10^-6 M), at m2 mACHR [8] (carbachol 10^-4 M) and at m2 mACHR [8] (carbachol 10^-6 M) was under 1 per pmol DNA throughout. Besides, the Focus-forming activity at m5 mACHR (carbachol 10^-4 M) is 47 per pmol DNA; on m5 mACHR (carbachol 10^-6 M), under 5 per pmol DNA. The “foci of transformation in presence of carbachol” value at m4 mACHR [4] (m4 transfected cultures) was “not m2 or m4”; on m2 mACHR [8] (m2 transfected cultures) it was “not m2 or m4”; on m5 mACHR (m5 transfectants), “foci of transformation readily appeared”. For the same molecule, the Emax in the assay on NIH/3T3 cells [7] was determined as 100%. In addition, in the assay with m1, m2, m3 or m4 mACHRs, the “cAMP accumulation without forskolin” value was “did not accumulate detectable cAMP”.

Take `C[N+]1(C)C2CC(OC(=O)C(CO)c3ccccc3)CC1C1OC12` (stereo not shown) [[^3 H]NMS, N-methylscopolamine]: the Binding is 308 fmoles [^3 H]NMS/mg protein on m2 mACHR [9] (G418 selected m2 clone (Table 3)) and 0 fmoles [^3 H]NMS/mg protein in the assay with NIH/3T3 cells [10] (neo clone (Table 3)). For the same molecule, the “Binding [3H]NMS” value is 90 fmoles [^3 H]NMS/mg protein on m2 mACHR [9] (mass culture, pDS m2) and < 1 fmoles [^3 H]NMS/mg protein in the assay with NIH/3T3 cells [10] (mass culture, pDS).
